A value given as a limit tells only on which side of the number the result lay.

Test [1] has as its target T1, BLT2-expressing cells (CHO-BLT2 cells) (Homo sapiens, UniProt Q9NPC1).
T1 construct: HA; expressed in transfected cells
T1 sequence (Q9NPC1 with tags, fused parts or gaps): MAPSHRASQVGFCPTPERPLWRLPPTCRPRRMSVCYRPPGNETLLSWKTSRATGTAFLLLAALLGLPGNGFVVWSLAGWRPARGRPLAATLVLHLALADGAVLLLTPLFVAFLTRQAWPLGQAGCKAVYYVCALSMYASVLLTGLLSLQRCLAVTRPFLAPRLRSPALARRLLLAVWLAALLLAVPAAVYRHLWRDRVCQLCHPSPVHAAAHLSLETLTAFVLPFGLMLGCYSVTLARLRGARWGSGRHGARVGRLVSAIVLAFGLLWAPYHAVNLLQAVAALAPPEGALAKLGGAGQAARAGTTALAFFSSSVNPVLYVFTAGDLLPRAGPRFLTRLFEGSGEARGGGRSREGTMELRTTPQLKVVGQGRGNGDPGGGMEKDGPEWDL
Briefly: MTT cell growth of LTB4-stimulated BLT2-expressing cells. The settings on record: pre-treated at 10 μM, LTB4 300 nM. It is filed as cell-based. On the procedure: Cell viability according to treatment of the compounds prepared in the examples were measured by a 3-(4,5-dimethylthiazol-2-yl)-2,5-diphenyltetrazolium bromide (MTT) method.
More specifically, 1×10^4 each of the BLT2-nonexpressing cells (CHO-pcDNA3.1 cells) and BLT2-expressing cells (CHO-BLT2 cells), which were prepared in Experimental Example 1, were dispensed in a […], and cultured for 24 hours. Afterward, the culture medium was removed, a serum-free RPMI medium was added, and after two hours, the cells were pre-treated with each of the compound prepared in one of the examples (10 μM), 10 μM DMSO (compound solvent) as a control, and 10 μM 1-[5-ethyl-2-hydroxy-4-[[6-methyl-6-(1H-tetrazol-5-yl)heptyl]oxy]phenyl]-ethanone (LY255283; Cayman) as a positive control for 1 hour. Subsequently, after treatment of LTB4 (300 nM), the cells were cultured for 24 hours. 20 μL of an MTT solution (5 mg/mL, Sigma-Aldrich) was added to each well, the cells were cultured in a humid CO2 incubator at 37° C. for 4 hours, a supernatant was removed, and 200 μL of DMSO was added to each well to dissolve insoluble violet formazan crystals. Absorbance was measured using a microplate reader (Molecular Devices, Sunnyvale, Calif.) at 550 nm, and the measurement was repeated three times.

Test [2] deals with T2, BLT2 (Homo sapiens, UniProt Q9NPC1).
T2 construct: HA; expressed in transfected cells
T2 sequence (Q9NPC1 with tags, fused parts or gaps): T1 sequence (Q9NPC1 with tags, fused parts or gaps)
Nature of the test: LTB4-induced chemotactic motility, Transwell, CHO-BLT2 cells. Type of test: cell-based. The settings on record: LTB4 300 nM, serum-free, read-out: IC50 of chemotactic motility inhibition. On the procedure: (§1) Chemotactic motility was analyzed using a Transwell chamber including a polycarbonate filter (8-μm pore size, Corning Costar) with a 6.5-mm diameter. Specifically, the lower surface of the filter was coated with 10 μg/mL fibronectin in a serum-free RPMI 1640 medium at 37° C. for 1 hour. The experiment was performed by placing the filter dried and coated with RPMI 1640 media containing various amounts of LTB4 in the lower wells of the Transwell chamber, and loading CHO cells stably expressing BLT1 and BLT2 into the upper wells containing serum-free RPMI 1640 media finally at 2×10^4 cells/100 μL. To evaluate the effect of inhibitors, the cells were pre-treated with each inhibitor for 30 minutes before dispensing. After the cells were cultured at 37° C. in 5% CO2 for 3 hours, the filters were fixed with methanol for 3 minutes, and stained with hematoxylin and eosin for 10 minutes. In the experiment, the cells were BLT2-expressing cells (CHO-BLT2 cells) and BLT1-expressing cells (CHO-BLT1 cells), and LY255283 and U75302 were used as positive controls for each type of the cells, and BLT2 ligand LTB4, (300 nM), BLT1 ligand LTB4 (10 nM), and lysophosphatidic acid (LPA; 100 nM) were used as comparative controls. The chemotactic motility was quantitatively analyzed by counting the cells on the lower side of the filter under an optical microscope (magnification, 200×). For each analysis, 6 fields were subjected to counting, each sample was analyzed twice, and the analysis was repeated three times.

Another test addresses T3, BLT1 (Homo sapiens, UniProt Q15722).
T3 construct: expressed in transfected cells; host or cells: CHO cells stably expressing BLT1 (CHO-BLT1)
Briefly: LTB4-induced chemotactic motility, Transwell, CHO-BLT1 cells. It is filed as cell-based. The following applies: LTB4 10 nM, serum-free, read-out: IC50 of chemotactic motility inhibition. Here is the method:
as §1

The target of test [3] is T2, BLT2. Nature of the test: [3H]LTB4 and BLT2 binding inhibition, CHO-BLT2 cell membrane proteins. The settings on record: [3H]LTB4 5 nM.
Procedure: The inhibition of LTB4 and BLT2 binding (ligand binding affinity) was analyzed using radioactive tritium (^3H)-labeled LTB4 ([^3H]LTB4, ARC; specific activity 160.0 Ci/mmol). After 2×10^6 of CHO-BLT2 cells were plated into a 100-mm culture dish and cultured for 48 hours, an experimental method was carried out as follows: Collected cells were treated using a homogenizer a total of five times for 1 minute each to separate proteins of the cell membrane. Afterward, the cells were subjected to centrifugation at 4° C. and 45,000 rpm for 40 minutes to only collect the proteins of the cell membrane, and thereby, a protein concentration of 40 μg/45 μL was quantified. When a BLT2-containing cell membrane proteins which were quantified in the same manner was treated with the same amount of [^3H]LTB4 (5 nM), and then a different concentration (10^−9, 10^−8, 10^−7, 10^−6 or 10^−5 M) of a compound, a degree of inhibiting the tritium-labeled LTB4 and BLT2 binding was measured using a Hidex 300sL liquid scintillation counter.
Test [4] relates to asthma-induced mice (OVA+LPS). Nature of the test: OVA+LPS-induced severe asthma mice: AHR and cell influx. It is filed as in vivo. The following applies: for AHR reduced: airway constrictor 50 mg/ml. The source says:
Mast cells play a pivotal role in the initial reaction to asthma, and when an allergen enters the body from the outside through an airway, the mast cells are activated, thereby secreting various cytokines (interleukin-4 and interleukin-13). Due to the cytokines, the influx of inflammatory cells, the generation of mucus and the airway contraction occur. The inventors used 7-week-old (18 to 20 g) female BALB/c mice provided by Orient (Seoungnam, Korea) for the experiment to confirm the antiasthma effect, and then the asthma was induced in the mice. On the first and 14th days, 2.5 mg of an adjuvant, aluminum hydroxide gel (alum; Pierce, Rockford, Ill.) was included in […] of ovalbumin (OVA) to intraperitoneally sensitize female […] mice. On the 21st, 22nd and 23rd days of two initial sensitizations, 1% OVA was sprayed into the mice using an ultrasonic nebulizer. The compound of the present invention (LMT-696; 5 mg/kg), LY255283 (5 mg/kg, Cayman) or DMSO was intraperitoneally injected at the 1 hour before the 1% OVA spraying. On the 24th day of the initial sensitization, airway hyperresponsiveness (AHR) was detected, and on the 25th day, the mice were dissected to observe asthma phenotypes, for example, inflammatory cytokine IL-4 expression and the influx of inflammatory cells (neutrophils). In the case of lipopolysaccharide (LPS)-induced severe asthma animal models, on the 0, 1st, 2nd and 7th days, 75 μg of OVA and 1 mg of LPS were intranasally injected into Balb/c mice for sensitization. On the 14th, 15th, 21th and 22th days, 50 μg of OVA was injected into the nose for a challenge. The compound of the present invention (LMT-1013) (1, 3, 10 or 30 mg/kg), montelukast (10 mg/kg, DRS) or a control buffer (10% DMA, 5% Tween 80, 85% brine) were treated one hour before the challenge by injecting 50 μg of OVA into the nose. On the 23rd day of the initial sensitization, AHR was detected, and on the 24th day, the mice were dissected to observe a severe asthma phenotype, for example, the influx of the inflammatory cells (neutrophils). In addition, the AHR detection was performed after an airway constrictor, methacholine (6.25 to 50 mg/ml depending on conditions), was administered to the mice. The administration of the airway constrictor was performed by spraying through an inlet of the chamber using an ultrasonic nebulizer for 3 minutes. The AHR was analyzed using an enhanced pause as the indicator of the asthma phenomenon. Bronchoalveolar lavage fluid cell counts were quantified by counting cells under an optical microscope (magnification, 200×). In each analysis, 4 fields were subjected to counting, each sample was analyzed twice, and the analysis was repeated three times.

T3 sequence (Q15722 whole entry, species assumed): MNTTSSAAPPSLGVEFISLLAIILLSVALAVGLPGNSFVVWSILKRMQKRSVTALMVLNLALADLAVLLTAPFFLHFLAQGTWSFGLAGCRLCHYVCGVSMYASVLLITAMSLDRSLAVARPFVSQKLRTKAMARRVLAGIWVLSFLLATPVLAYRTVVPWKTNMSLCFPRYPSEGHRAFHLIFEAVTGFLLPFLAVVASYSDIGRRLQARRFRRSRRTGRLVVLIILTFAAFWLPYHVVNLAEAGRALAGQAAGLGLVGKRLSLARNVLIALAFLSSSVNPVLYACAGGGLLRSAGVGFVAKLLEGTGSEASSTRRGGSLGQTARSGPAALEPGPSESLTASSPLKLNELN

For `CCCCC(=O)N(CC#Cc1ccc(C(=O)O)cc1)c1ccccc1` [LMT-1013, 4-(3-(N-phenylpentaneamido)prop-1-yn-1-yl)benzoic acid], the “cell growth compared with the control DMSO” value in test [1] came out at 96.3%. The IC50 at BLT2 [2] is 62.4 nM; at BLT1 it was at least 10000 nM; at BLT2 [3] it was 30.7 nM. In addition, the neutrophils reduced in test [4] (1 mg/kg, FIGS. 13A-13C) is on record as 51.6%; in test [4] (1 mg/kg, FIGS. 14A-14B), 42.2%; in test [4] (3 mg/kg, FIGS. 14A-14B), 48.8%; in test [4] (10 mg/kg, FIGS. 13A-13C) it was 90.3%; in test [4] (10 mg/kg, FIGS. 14A-14B) it was 71.8%; in test [4] (30 mg/kg, FIGS. 14A-14B), 88.3%. The AHR reduced in test [4] (1 mg/kg) was determined as 48.6%; in test [4] (3 mg/kg), 52.9%; in test [4] (10 mg/kg), 83.2%; in test [4] (30 mg/kg), 87.3%. Moreover, the “total cells entering the abdominal cavity of the mice” value in test [4] (1, 3, 10 and 30 mg/kg, FIGS. 14A-14B) is on record as “reduced”; in test [4] (1 and 10 mg/kg, FIGS. 13A-13C) it was “reduced”.

These data come from US10766857B2, “Compound having BLT inhibitory activity and composition, for preventing or treating inflammatory diseases, comprising same as active ingredient” (DONGGUK UNIVERSITY INDUSTRY-ACADEMIC COOPERATION FOUNDATION, priority 2015, dated 2020).
